Measured values from ChEMBL document CHEMBL3091385, “Radionuclide labeling and evaluation of candidate radioligands for PET imaging of histone deacetylase in the brain” (Bioorg Med Chem Lett, 2013).

What was measured:
[1] = Lipophilicity, log D of the compound at pH 7.4; assay type: physicochemical; conditions: buffer
[2] = Drug uptake in iv dosed baboon caudate after 90 mins by PET analysis; assay type: ADME, organism-based; conditions: papio anubis, in vivo
[3] = Protein binding in plasma (unknown origin); assay type: ADME, cell-free; conditions: unidentified, read-out: PPB (converted)
[4] = Drug uptake in iv dosed baboon putamen after 90 mins by PET analysis; assay type: ADME, organism-based; conditions: papio anubis, in vivo
[5] = Drug uptake in iv dosed baboon kidney after 90 mins by PET analysis in presence of SAHA; assay type: ADME, organism-based; conditions: papio anubis, in vivo
[6] = Drug uptake in iv dosed baboon liver after 90 mins by PET analysis in presence of SAHA; assay type: ADME, organism-based; conditions: papio anubis, in vivo
[7] = Drug uptake in iv dosed baboon cerebellum after 90 mins by PET analysis; assay type: ADME, organism-based; conditions: papio anubis, in vivo
[8] = Drug uptake in iv dosed baboon liver after 90 mins by PET analysis; assay type: ADME, organism-based; conditions: papio anubis, in vivo
[9] = Drug uptake in iv dosed baboon kidney after 90 mins by PET analysis; assay type: ADME, organism-based; conditions: papio anubis, in vivo
[10] = Drug uptake in iv dosed baboon heart after 90 mins by PET analysis; assay type: ADME, organism-based; conditions: papio anubis, in vivo
[11] = system: Brain; experiment: Drug uptake in iv dosed baboon brain after 90 mins by PET analysis; assay type: ADME, organism-based; conditions: papio anubis, in vivo
[12] = system: Brain; experiment: Drug uptake in iv dosed baboon whole brain after 90 mins by PET analysis; assay type: ADME, organism-based; conditions: papio anubis, in vivo
[13] = Drug uptake in iv dosed baboon heart after 90 mins by PET analysis in presence of SAHA; assay type: ADME, organism-based; conditions: papio anubis, in vivo

Row | logD ([1]; read-out: logD) | Drug uptake [2] | fraction unbound [3] | Drug uptake [4] | Drug uptake [5] | Drug uptake [6] | Drug uptake [7] | Drug uptake [8] | Drug uptake [9] | Drug uptake [10] | Drug uptake [11] | Drug uptake [12] | Drug uptake [13] | SMILES | logD [1]
1 | 1.79 | – | – | – | – | – | – | – | – | – | – | – | – | Nc1ccccc1NC(=O)c1ccc(CN[11C](=O)OCc2cccnc2)cc1 | –
2 | – | – | – | – | – | – | – | – | – | – | – | – | – | O=C(C[18F])NCCCCCC(=O)Nc1ccccc1 | 1.39
3 | 0.5 | Active | 0.085 | Active | Active | Active | Active | Active | Active | Active | Active | Active | Active | [11CH3]Oc1ccc(C(=O)CCCCCCC(=O)NO)cc1 | –
